# Entries after “also recorded” stand apart in the source; their conditions may differ.
# Legend:
# mouse model of asthma = conditions: Matheu et al., J Allergy Clin Immunol 112:585, 2003; cited from earlier work
# Brown Norway rats = assay: Ovalbumin-induced allergic asthma, BALF cell counts; assay type: in vivo, rat; conditions: aerosolized 500 ng/Kg on Days 14 and 16
# Experimental: 6-7 week old Brown Norway male rats were obtained from Harlan Sprague-Dawley (Madison, Wis.) and housed in shoebox cages. Animals were provided a purified rodent diet prepared in-house containing 0.47% calcium and 0.3% phosphorus, and water ad libitum. The diet was supplemented with 1.6 IU vitamin D3/g. Rats were sensitized on Days 0 and 7 with a 1 mL intraperitoneal (I.P.) injection of 1 mg/mL OVA in phosphate-buffered saline (PBS) precipitated 1:1 with Imject Alum (PIERCE, IL). Control animals were sensitized with PBS. The animals were then challenged with aerosolized OVA [1% (w/v)] or aerosolized PBS (control) on Days 14 and 16. This OVA-sensitization and -challenge protocol has been used extensively to generate asthma symptoms in rats. Aerosolized-PBS (200 μL) or aerosolized-OVA (200 μL) was delivered by using the Microsprayer Syringe Model 1C (PennCentury, Philadelphia, Pa.). Aerosolized-vehicle [aqueous solution containing 30% (v/v) propylene glycol and 5% ethanol], or aerosolized-1,25(OH)2D3 (500 ng/Kg of body weight) was administered on Days 14 and 16. There were 4 groups in the study. Group 1: Sensitized and challenged with PBS, no treatment. Group 2: Sensitized and challenged with OVA, no treatment. Group 3: Sensitized and challenged with OVA, vehicle treatment on Days 14 and 16. Group 4: Sensitized and challenged with OVA, 1,25(OH)2D3 treatment on Days 14 and 16. At the end of the study, 17 days after the first I.P. injection, lungs were lavaged five times with 5 mL/each of calcium- and magnesium-free PBS containing 0.05 mM EDTA (ethylenediamine tetraacetic acid). The lavage fluid was centrifuged at 1,000×g for 10 minutes. The supernatant was removed, and the cell pellet was resuspended in 1 mL cold PBS. Total cell counts in bronchoalveolar lavage fluid (BALF) was performed using a hemocytometer. Slides of BALF were prepared by cytospin-2 cytocentrifugation of an aliquot of the cell suspension, and a differential cell count to determine the number of leukocytes was performed after staining with Diff-Quick (IMED, Inc., CA).
# BALBc mice = assay: Asthma model, ovalbumin-sensitized mice; assay type: in vivo, mouse; conditions: preliminary work
# Experimental: The fourth test performed on the analogs is treatment using an asthma model. For this test, BALBc mice are injected for 7 days with 10 micrograms of ovalbumin together with alum to sensitize the animals. These are given by intraperitoneal injection and at the end of 7 days, the asthmatic reaction to an inhaled dose of ovalbumin is examined. In this test, the ovalbumin as a 0.2% solution is delivered by nebulizer to the mouse. Air flow measures are carried out as described by Isenberg-Feig et al. in Current Allergy and Asthma Reports, 3:70-78 (2003) which is hereby incorporated by reference in its entirety and for all purposes as if fully set forth herein. Furthermore, the lungs are removed and sectioned for analysis. The degree of invasion of eosinophils into the bronchial tissue is used as a non-subjective measurement of asthmatic response. After the animals are sensitized and given the expected responses to ovalbumin, the animals are subjected to an aerosol that includes either a vitamin D antagonist of the invention or 1α,25-(OH)2D3. After exposure to the vitamin D antagonist of the invention or the 1α,25-(OH)2D3, the animals will be exposed to a nebulized dose of 0.2% ovalbumin. The presence of the antagonist will be found to block the asthmatic response to the inhaled ovalbumin. […]
# [1] = target: T1, full-length recombinant rat vitamin D receptor (Rattus norvegicus, UniProt P13053); assay: Vitamin D receptor binding assay, competition with [3H]-1,25(OH)2D3; conditions: relative to 1α,25-dihydroxyvitamin D3; FIG. 1
# T1 construct: Full-length recombinant rat receptor is/was expressed in E. coli BL21(DE3) Codon Plus RIL cells; histidine tag (C); made in house; host or cells: E. coli BL21(DE3) Codon Plus RIL
# T1 sequence (P13053 1-423): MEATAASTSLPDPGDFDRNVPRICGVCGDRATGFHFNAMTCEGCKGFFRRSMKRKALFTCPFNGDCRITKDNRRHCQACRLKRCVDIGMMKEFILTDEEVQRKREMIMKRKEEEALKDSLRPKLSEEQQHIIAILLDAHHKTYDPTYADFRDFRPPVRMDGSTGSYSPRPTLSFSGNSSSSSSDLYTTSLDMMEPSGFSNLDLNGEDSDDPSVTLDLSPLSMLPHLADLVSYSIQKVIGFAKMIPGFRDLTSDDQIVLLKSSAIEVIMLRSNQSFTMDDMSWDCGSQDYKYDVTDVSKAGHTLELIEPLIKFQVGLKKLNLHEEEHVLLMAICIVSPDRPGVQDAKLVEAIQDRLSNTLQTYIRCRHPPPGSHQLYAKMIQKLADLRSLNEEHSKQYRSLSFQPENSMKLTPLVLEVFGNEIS
# From the text: Full-length recombinant rat receptor is/was expressed in E. coli BL21(DE3) Codon Plus RIL cells and purified to homogeneity using two different column chromatography systems. The first system is/was a nickel affinity resin that utilizes the C-terminal histidine tag on this protein. The protein that is/was eluted from this resin is/was further purified using ion exchange chromatography (S-Sepharose Fast Flow). Aliquots of the purified protein are/were quick frozen in liquid nitrogen and stored at −80° C. until use. For use in binding assays, the protein is/was diluted in TEDK50 (50 mM Tris, 1.5 mM EDTA, pH 7.4, 5 mM DTT, 150 mM KCl) with 0.1% Chaps detergent. The receptor protein and ligan concentration is/was optimized such that no more than 20% of the added radiolabeled ligand is/was bound to the receptor.
# Unlabeled ligands are/were dissolved in ethanol and the concentrations determined using UV spectrophotometry (1,25(OH)2D3: molar extinction coefficient=18,200 and λmax=265 nm; Analogs: molar extinction coefficient=42,000 and λmax=252 nm). […]
# Radiolabeled and unlabeled ligands are/were added to 100 mcl of the diluted protein at a final ethanol concentration of ≦10%, mixed and incubated overnight on ice to reach binding equilibrium. […] Total binding is/was determined from the tubes containing only radiolabeled ligand.
# [2] = tested on: vitamin D 24-hydroxylase (CYP24) promoter luciferase reporter; assay: Competition for transcription activity, analog plus 1,25(OH)2D3 in the reporter gene assay; assay type: cell-based; conditions: with 1α,25-dihydroxyvitamin D3; FIGS. 5-6
# Experimental: Antagonism is/was tested by adding a combination of 1,25(OH)2D3 and the putative antagonist in the same well keeping the ethanol concentration the same.
# The third test that is performed is competition for transcription activity. Again, the ROS-17/2.8 osteoblast cells that contain the reporter gene system described above are employed. A dose-response curve is constructed with 1α,25-(OH)2D3 and another 1α,25-(OH)2D3 dose response curve is prepared with increasing concentrations of antagonist or analogs of the invention. Analogs that prevent 1α,25-(OH)2D3-induced transcription, are defined using this technique as either weak agonist or a complete antagonist of the VDR for 1α,25-(OH)2D3.
# [3] = tested on: Human promyelocytic leukemia (HL60) cells; assay: HL-60 cellular differentiation test (NBT reduction); assay type: cell-based; conditions: relative to 1α,25-dihydroxyvitamin D3; FIGS. 2-3
# Experimental: The compounds of the invention are/were dissolved in ethanol and the concentrations are/were determined using UV spectrophotometry. Serial dilutions are/were prepared so that a range of drug concentrations can be tested without changing the final concentration of ethanol (≦0.2%) present in the cell cultures.
# Antagonism is/was tested by adding a combination of 1,25(OH)2D3 and the putative antagonist in the same well keeping the final ethanol concentration the same.
# Human promyelocytic leukemia (HL60) cells are/were grown in RPMI-1640 medium containing 10% fetal bovine serum. The cells are/were incubated at 37° C. in the presence of 5% CO2.
# HL60 cells are/were plated at 1.2×10^5 cells/mL. Eighteen hours after plating, cells in duplicate are/were treated with compound of the invention in ethanol. Four days post-dose, the cells are/were harvested and a nitro blue tetrazolium reduction assay is/was performed (Collins et al., J. Exp. Med. 149, 969-974, Appendix A (1979)). The percentage of differentiated cells is/was determined by counting a total of 200 cells and recording the number that contained intracellular black-blue formazan deposits. Verification of differentiation to monocytic cells is/was determined by measuring phagocytic activity. All drug concentrations are/were tested in duplicate.
# [4] = tested on: vitamin D 24-hydroxylase (CYP24) promoter luciferase reporter; assay: Reporter gene assay, CYP24 promoter-luciferase in ROS-17/2.8 osteoblast cells; assay type: cell-based; conditions: Ros17/2.8 (bone) cells; FIG. 4
# From the text: A reporter gene assay is/was used in which the promoter to the vitamin D 24-hydroxylase, i.e. CYP24 is/was placed in front of a luciferase reporter and is/was permanently transfected into ROS-17/2.8 osteoblast cell cultures as previously described (see Arbour, N. C., T. K. Ross, C. Zierold, J. M. Prahl, and H. F. DeLuca. A Highly Sensitive Method for Large-Scale Measurements of 1,25-Dihydroxyvitamin D. Analyt. Biochem. 255, 148-154, (1998) which is hereby incorporated by reference in its entirety and for all purposes as if fully set forth herein). These cells are/were grown to almost confluency at which time the analog or the standard 1α,25-(OH)2D3 is/was added. After 4 hours of incubation, the cells are/were ruptured and luciferase is/was measured by the methods provided by the Promega Kit. These experiments show the level of activity of the vitamin D analogs of the invention at transcription.
# The phrase “RLU” refers to relative luciferase units.
# Sprague-Dawley rats [5] = assay: Bone calcium mobilization (serum calcium); assay type: in vivo, rat; conditions: four ip doses, even at 2,900 pmol/day, FIG. 7
# Experimental: (§1) Male, weanling Sprague-Dawley rats are/were placed on Diet 11 (0.47% Ca) diet +AEK for one week followed by Diet 11 (0.02% Ca) +AEK for 3 weeks. The rats are/were then switched to a diet containing 0.47% Ca for one week followed by two weeks on a diet containing 0.02% Ca. Dose administration began during the last week on 0.02% calcium diet. Four consecutive ip doses are/were given approximately 24 hours apart. Twenty-four hours after the last dose, blood is/was collected from the severed neck, and the concentration of serum calcium is/was determined as a measure of bone calcium mobilization. The first 10 cm of the intestine is/was also collected for intestinal calcium transport analysis using the everted gut sac method.
# (§2) Antagonism is/was tested by administering a combination of 1,25(OH)2D3 and the putative antagonist to the animal simultaneously.
# Sprague-Dawley rats [6] = assay: Intestinal calcium transport (everted gut sac); assay type: in vivo, rat; conditions: four ip doses, FIG. 8
# Experimental: as §1, §2
Structure (SMILES),asthma symptoms in a mouse model of asthma (mouse model of asthma),total cell counts in BALF after OVA challenge (Brown Norway rats; FIG. 9),number of eosinophils in BALF after OVA challenge (Brown Norway rats; FIG. 11),"number of macrophages in BALF after OVA challenge (Brown Norway rats; versus control (PBS), FIG. 10)",severity of the asthmatic response to ovalbumin (BALBc mice),"binding to the vitamin D receptor (competition with [3H]-1,25-(OH)2-D3) [1]",antagonistic activity on transcription when administered along with the native hormone [2],induction of differentiation of HL-60 cells [3],in vitro transcription activity (reporter gene) [4],bone calcium mobilization (calcemic activity) (Sprague-Dawley rats [5]),intestinal calcium transport (Sprague-Dawley rats [6])
"C=C1/C(=C\C=C2/CCC[C@]3(C)[C@@H]([C@H](C)CCCC(C)(C)O)CC[C@@H]23)C[C@@H](O)C[C@@H]1O [1,25(OH)2D3, 1α,25-dihydroxycholecalciferol]",both triggers and exacerbates asthma symptoms,reduced; also recorded: inhibits the OVA (ovalbumin)-mediated increase in total number of cells in BALF,increased OVA-induced eosinophils recruitment; also recorded: increases the OVA-induced eosinophils count in BALF compared to the control,decreased the number of macrophages; also recorded: decreases the number of macrophages compared to the control,increases the severity of the asthmatic response to ovalbumin,–,–,–,–,–,–
"C=C1[C@H](O)CC(=C/C=C2\CCC[C@]3(C)[C@@H]([C@H](C)/C=C/[C@@H](OCCCC)C4(C(=O)OCCCC)CC4)CC[C@@H]23)C[C@H]1O [CN-67, (22E)-(24R)-24-butoxy-25-carbobutoxy-2-methylene-26,27-cyclo-22-dehydro-1α-hydroxy-19-norvitamin D3]",–,–,–,–,–,"significantly less active than 1α,25-dihydroxyvitamin D3",appears to exhibit antagonistic activity,"less active than 1α,25-dihydroxyvitamin D3",does not appear to be active in causing transcription,–,–
"C=C1[C@H](O)CC(=C/C=C2\CCC[C@]3(C)[C@@H]([C@H](C)/C=C/[C@@H](O)C4(C(=O)OCCCC)CC4)CC[C@@H]23)C[C@H]1O [OU-72, (22E)-(24R)-25-carbobutoxy-2-methylene-26,27-cyclo-22-dehydro-1α,24-dihydroxy-19-norvitamin D3]",–,–,–,–,–,approximately equal to the native hormone,shows antagonistic activity,"less active than 1α,25-dihydroxyvitamin D3",active in stimulating transcription,no calcemic activity,retain the ability to elevate intestinal calcium transport
